Laboratory results published in patent publication US7589077B2, “Antiviral nucleosides” (priority 2001, dated 2009).
Converted amounts (≈) assume the structure as drawn. Read-outs that look alike come from different tables or passages of the source.

What was measured:
[1] = Cell cytotoxicity in Vero cells; assay type: cell-based; conditions: African green monkey, Vero cells
Description: (§1) The compounds were assayed for a) their ability to inhibit DHBV DNA replication in duck hepatocytes, b) their ability to inhibit HBV DNA replication in HepG2 2.2.15 cells, c) the cell cytotoxicity in Vero cells, the cell viability in HFF cells, d) the cell proliferation in HFF cells, and e) the T cell proliferation (purified T cells, PHA stimulated). 3-TC was used as a control.

HSV-1 (KOS) HSV-TK+ = HSV-1 (KOS) HSV-TK+ antiviral assay; assay type: cell-based, Herpes simplex virus type-1; conditions: Table 4
Description: (§2) Cytopathic effect (CPE) inhibition assays for HSV-1, HSV-2, HCMV and VZV were performed as follows: Low passage human foreskin fibroblasts (HFF) cells were seeded into 96 well tissue culture plates 24 h prior to use at a cell concentration of 2.5×10^4 cells per mL in 0.1 mL of minimal essential medium (MEM) supplemented with 10% fetal bovine serum (FBS). The cells were then incubated for 24 h at 37° C. in a CO2 incubator. After incubation, the medium was removed and 100 μL of MEM containing 2% FBS was added to all but the first row. In the first row, 125 μL of experimental drug was added in triplicate wells. Medium alone was added to both cell and virus control […]. After incubation, the medium was removed and 100 μl of MEM containing 2% FBS was added to all but the first row. Medium alone was added to both cell and virus control wells. 125 μl of Experimental drug was added in triplicate wells. The drug in the first row of wells was then diluted serially 1:5 throughout the remaining wells by transferring 25 μL using the Cetus Liquid Handling Machine. After dilution of drugs, 100 μL of the appropriate virus concentration was added to each well, excluding the cell control wells which received 100 μL of MEM. For HSY-1 and HSV-2 assays, the virus concentration utilized was 1000 PFU's per well. For CMV and VZV assays, the virus concentration added was 2500 PFU's per well. The plates were then incubated at 37° C. in a CO2 incubator for 3 days for HSV-1 and HSV-2, 10 days for VZV, or 14 days for CMV. After the incubation period, media was aspirated and the cells stained with a 0.1% crystal violet solution for 30 min. The stain was then removed and the plates were allowed to dry 24 h and then read on a Skatron Plate Reader at 620 nm.

HSV-1 (KOSSB) HSV-TK− = assay: microbe, parasite or virus in culture; assay type: cell-based, Herpes simplex virus type-1; conditions: for HSV-1 (KOSSB) HSV-TK− EC50: Table 4
Description: as §2, with “The” for “Cytopathic effect (CPE) inhibition assays for HSV-1, HSV-2, HCMV and VZV were performed as follows: Low passage human foreskin fibroblasts (HFF) cells were seeded into 96 well tissue culture plates 24 h prior to use at a cell concentration of 2.5×10^4 cells per mL in 0.1 mL of minimal essential medium (MEM) supplemented with 10% fetal bovine serum (FBS). The”

HSV-1 (E-377) = assay: CPE inhibition assay HSV-1 (E-377) in HFF cells; assay type: cell-based, Herpes simplex virus type-1; conditions: for EC50: Human alphaherpesvirus 1, HFF
Description: as §2

HSV-2 (MS) = assay: CPE inhibition assay HSV-2 (MS) in HFF cells; assay type: cell-based, Herpes simplex virus type-2; conditions: for EC50: Human alphaherpesvirus 2, HFF
Description: as §2

VZV (Ellen) = assay: CPE inhibition assay VZV (Ellen) in HFF cells; assay type: cell-based, varicella zoster virus; conditions: for EC50: Human alphaherpesvirus 3, HFF
Description: as §2

Epstein-Barr Virus (EBV) = assay: EBV immunofluorescence assay in DAUDI cells (P3HR-1 strain); assay type: cell-based; conditions: for EC90: human gammaherpesvirus 4; for EBV EC50: Table 4
Description: The immunofluorescence assay, using monoclonal antibodies, for Epstein-Barr Virus (EBV) was performed as follows: DAUDI cells were infected with the P3HR-1 strain of EBV and the test drug was added after adsorption (45 min. at 37° C.) and washing of the cell cultures. These cultures were then incubated for 2 days in complete medium to allow viral gene expression. Following the 48 h incubation period, the number of cells in each sample were counted and smears were made. Monoclonal antibodies to the different early antigen (EA) components and VCA were than added to the cells, incubated and washed. This was followed by the addition of a fluorescein conjugated rabbit anti mouse Ig antibodies. The number of fluorescence positive cells in the smears were counted and the total number of cells in the cultures positive for EA or VCA were then calculated and compared.

[2] = system: duck hepatitis B virus (DHBV); assay: DHBV DNA replication in primary duck hepatocytes (dot blot hybridization); assay type: cell-based; conditions: for inhibition at 10 µg/mL: read-out: % Inh. of DHBV DNA in duck hepatocytes @ 10 μg/ml
Description: A series of compounds were synthesized and assayed for activity against duck hepatitis B virus (DHBV). […] Test compounds were added to the hepatocyte cultures on day 2 and maintained in culture with media changed every second day until day 12. Cell were harvested at day 14 and lysed with buffer containing 1% SDS. DNA was isolated from the lysate and dot blot hybridization was performed using a DHBV (32P) DNA probe. […]
as §1

human HBV = assay: HBV DNA replication in HepG2 2.2.15 cells; assay type: cell-based, hepatitis B virus; conditions: for EC50: Table 3a, read-out: % Inhibition of human HBV DNA replication in HepG2 2.2.15 cells EC50
Description: as §1, with “control. Additional compounds described below in the Preparative Examples section were also tested, and the results are shown in Tables 2-4 below. The reference numbers for the compounds are found in the Preparative Examples.” for “control.”

HCMV (AD169) = assay: CPE inhibition assay HCMV (AD169) in HFF cells; assay type: cell-based, human cytomegalovirus; conditions: for EC50: Human betaherpesvirus 5, AD169, HFF
Description: as §2

[3] = Duck hepatitis B virus, Hepatocyte
[4] = Duck hepatitis B virus, Hepatocyte, Table 2, value in brackets, read-out: DHBV DNA in duck hepatocytes [EC50, μg/ml]

Compound: Nc1nc2c(ncn2COCCO)c(=O)[nH]1 [Acyclovir, acyclovir, reference compound]
- CC50 ([1]; Table 3b): > 400 µM
- EC50 (HSV-1 (KOS) HSV-TK+; Human alphaherpesvirus 1): < 1 µg/mL
- EC50 (HSV-1 (KOSSB) HSV-TK−; Human alphaherpesvirus 1, read-out: HSV-1 (KOSSB) HSV-TK− EC50, μg/ml): > 100 µg/mL
- EC50 (HSV-1 (E-377); Table 3b): 3.08 µM
- EC50 (HSV-1 (E-377); Table 4): 0.2 µg/mL
- EC50 (HSV-2 (MS); Table 3b): 6.16 µM
- EC50 (HSV-2 (MS); Table 4): 0.6 µg/mL
- EC50 (VZV (Ellen); Table 2): 0.6 µg/mL
- EC50 (VZV (Ellen); Table 3a): 0.03 µg/mL
- EC50 (VZV (Ellen); Table 3b): 3.96 µM
- EC50 (VZV (Ellen); Table 4): 0.08 µg/mL
- EBV EC90 (Epstein-Barr Virus (EBV); Table 4, in parentheses): > 50 µg/mL
- EBV EC90 (Epstein-Barr Virus (EBV); Table 5, in parentheses): (EC90 = >50) μg/ml
- EC50 (Epstein-Barr Virus (EBV); human gammaherpesvirus 4, Table 3a, read-out: EBV EC50): 1 µg/mL (≈ 4.44 µM)
- EC50 (Epstein-Barr Virus (EBV); human gammaherpesvirus 4, Table 4, read-out: EBV EC50): 1.4 µg/mL (≈ 6.22 µM)
- EC50 (Epstein-Barr Virus (EBV); human gammaherpesvirus 4, Table 5, read-out: EBV EC50): 1 µg/mL (≈ 4.44 µM)
- EC50 (Epstein-Barr Virus (EBV); human gammaherpesvirus 4, running text, read-out: anti EBV activity EC50): 1 µg/mL (≈ 4.44 µM)
- EC90 (Epstein-Barr Virus (EBV); Table 3a, in parentheses, read-out: EBV EC90): > 50 µg/mL
- EC90 (Epstein-Barr Virus (EBV); read-out: anti EBV activity EC90): > 50 µg/mL

Compound: C=Cc1cn(COC(CO)CO)c(=O)[nH]c1=O [Compound 9a, 1-[(2-Hydroxy-1-(hydroxymethyl)ethoxy)methyl]-5-vinyluracil]
- inhibition at 10 µg/mL [2, 3]: 82%
- EC50 [2, 4]: 0.3 to 1 µg/mL
- CC50 ([1]; Table 2): > 100 µg/mL

Compound: O=c1[nH]c(=O)n(CCC(CO)CO)cc1I [Compound 19, 1-[4-Hydroxy-3-(hydroxymethyl)-1-butyl]-5-iodouracil]
- inhibition at 10 µg/mL [2, 3]: 65.2%
- inhibition at 0.01 µg/mL (human HBV; Hepatitis B virus, HepG2 2.2.15, read-out: % Inh. of human HBV DNA replication in HepG2 2.2.15 cells @ 0.01 μg/ml (right)): 18.1%
- inhibition at 0.1 µg/mL (human HBV; Hepatitis B virus, HepG2 2.2.15, read-out: % Inh. of human HBV DNA replication in HepG2 2.2.15 cells @ 0.1 μg/ml (left)): 69.1%
- CC50 ([1]; Table 2): > 200 µg/mL

Compound: C=Cc1cn(CCC(CO)CO)c(=O)[nH]c1=O [Compound 20, 1-[4-Hydroxy-3-(hydroxymethyl)-1-butyl]-5-vinyluracil]
- inhibition at 10 µg/mL [2, 3]: 80%
- EC50 [2, 4]: 1 to 3 µg/mL
- CC50 ([1]; Table 2): > 100 µg/mL

Compound: Nc1nc(O)c2ncn(COC(CO)CO)c2n1 [Gancyclovir, ganciclovir, reference compound]
- EC50 (VZV (Ellen); Table 4): 0.1 µg/mL
- EC50 (HCMV (AD169); Table 2): 0.06 µg/mL (≈ 0.235 µM)
- EC50 (HCMV (AD169); Table 4, read-out: HCMV (AD-169) EC50): 0.1 µg/mL (≈ 0.392 µM)

Compound: [N-]=[N+]=NC1C(Cl)C(=O)NC(=O)N1[C@H]1C[C@H](O)[C@@H](CO)O1 (stereo partly shown) [RB-10, 5-Chloro-6-azido-5,6-dihydro-2′-deoxyuridine]
- CC50 ([1]; Table 3b): > 327 µM
- EC50 (HSV-1 (E-377); Table 3b): 0.33 µM
- EC50 (HSV-2 (MS); Table 3b): 1.6 µM
- EC50 (VZV (Ellen); Table 3b): 9.8 µM

Compound: (5R,6R) 5-fluoro-O^6-5′-cyclo-5,6-dihydro-2′-deoxythymidine [Compound R-25]
- HSV-1 (KOS) HSV-TK+ EC50 (HSV-1 (KOS) HSV-TK+): >25 µg/mL
- HSV-1 (KOSSB) HSV-TK− EC50 (HSV-1 (KOSSB) HSV-TK−): >50 µg/mL
- HSV-1 (E-377) EC50, μg/ml (HSV-1 (E-377); Table 4): >100 μg/ml
- HSV-2 (MS) EC50 (HSV-2 (MS); Table 4): >100 µg/mL
- VZV (Ellen) EC50 (VZV (Ellen); Table 4): >100 µg/mL
- HCMV (AD-169) EC50 (HCMV (AD169); Table 4): >100 µg/mL
- EBV EC50 (Epstein-Barr Virus (EBV)): 0.6 to 3.0 µg/mL

Compound: (5R,6S) 5-fluoro-O^6-5′-cyclo-5,6-dihydro-2′-deoxythymidine [Compound R-24]
- HSV-1 (KOS) HSV-TK+ EC50 (HSV-1 (KOS) HSV-TK+): >25 µg/mL
- HSV-1 (KOSSB) HSV-TK− EC50 (HSV-1 (KOSSB) HSV-TK−): >50 µg/mL
- HSV-1 (E-377) EC50, μg/ml (HSV-1 (E-377); Table 4): >100 μg/ml
- HSV-2 (MS) EC50 (HSV-2 (MS); Table 4): >100 µg/mL
- VZV (Ellen) EC50 (VZV (Ellen); Table 4): >100 µg/mL
- HCMV (AD-169) EC50 (HCMV (AD169); Table 4): >100 µg/mL
- EBV EC50 (Epstein-Barr Virus (EBV)): 0.6 to 2.8 µg/mL
- EBV EC90 (Epstein-Barr Virus (EBV); Table 4, in parentheses): (EC90 = 3.8) μg/ml

Compound: (5S,6R) 5-fluoro-O^6-5′-cyclo-5,6-dihydro-2′-deoxythymidine [Compound R-23]
- HSV-1 (KOS) HSV-TK+ EC50 (HSV-1 (KOS) HSV-TK+): >25 µg/mL
- HSV-1 (KOSSB) HSV-TK− EC50 (HSV-1 (KOSSB) HSV-TK−): >50 µg/mL
- HSV-1 (E-377) EC50, μg/ml (HSV-1 (E-377); Table 4): >100 μg/ml
- HSV-2 (MS) EC50 (HSV-2 (MS); Table 4): >100 µg/mL
- VZV (Ellen) EC50 (VZV (Ellen); Table 4): >100 µg/mL
- HCMV (AD-169) EC50 (HCMV (AD169); Table 4): >100 µg/mL
- EBV EC50 (Epstein-Barr Virus (EBV)): 0.1 to 1.4 µg/mL
- EBV EC90 (Epstein-Barr Virus (EBV); Table 4, in parentheses): (EC90 = 7.3) μg/ml

Compound: (5S,6S)5-Bromo-O^6-5′-cyclo-5,6-dihydro-5-ethyl-2′-deoxyuridine [Compound R-9]
- HSV-1 (KOS) HSV-TK+ EC50 (HSV-1 (KOS) HSV-TK+): 1 to 5 µg/mL
- HSV-1 (KOSSB) HSV-TK− EC50 (HSV-1 (KOSSB) HSV-TK−): 10 to 25 µg/mL
- HSV-1 (E-377) EC50, μg/ml (HSV-1 (E-377); Table 4): 4.0 μg/ml
- HSV-2 (MS) EC50 (HSV-2 (MS); Table 4): 10 µg/mL

Compound: [(+)(6R)]-5-bromo-6-ethoxy-5,6dihydro-3′-fluoro-2′,3′-dideoxyuridine [RB-5]
- % Inhibition of DHBV DNA in duck hepatocytes EC50 μM ([2]; Table 3a): not active
- EC50 (human HBV): 5 µM

Compound: [(−)-(6S)]-5-bromo-6-ethoxy-5,6-dihydro-3′-fluoro-2′,3′-dideoxyuridine [RB-4]
- EC50 ([2]; Table 3a, read-out: % Inhibition of DHBV DNA in duck hepatocytes EC50): > 10 µM
- EC50 (human HBV): 3 µM
